Source: PubChem BioAssay AID2060618 (Molecular Pharmacology Branch, DTP, NCI, 2025)
Blank lines part the entries; values can stand above or below the molecule they belong to.

System: 454973-116-R2-J3-PDC spheroids, percent test/control viability
Experiment: Anticancer human tumor 454973-116-R2-J3-PDC patient-derived pancreatic carcinoma cell line growth inhibition [CLK]
Settings: spheroids with HUVEC and MSC; for IC50: curve of first compound; for viability, T/C: stronger effect = lower value
Summary of the method: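 Multi-cell-type spheroids combined patient-derived tumor cells with HUVEC endothelial cells and human mesenchymal stem cells. Paired agents were dosed in half-log steps down from about clinical Cmax, or from 10 microM where Cmax was unknown.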
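Further: spheroids exposed to compounds for 7 days before readout.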

IC50 (second compound 0.0316 µM): 2.55 nM
IC50 (second compound 0.1 µM): 2.9 nM
IC50 (second compound 0.316 µM): 1.08 nM
IC50 (second compound 1 µM): < 0.949 nM
IC50 (second compound 3.16 µM): < 0.949 nM
IC50 (second compound 10 µM): < 0.949 nM
Compound: CC(C)CC(NC(=O)C(Cc1ccccc1)NC(=O)c1cnccn1)B(O)O (centres undefined) + CNC(=O)c1ccc(Nc2nc(OC3CCCC3)c3c(-c4ccc5nc(C)oc5c4)c[nH]c3n2)c(OC)c1
viability, T/C (second compound 0.0316 µM, first compound 0.000949 µM): 104%
viability, T/C (second compound 0.0316 µM, first compound 0.003 µM): 41%
viability, T/C (second compound 0.0316 µM, first compound 0.00949 µM): 3.37%
viability, T/C (second compound 0.0316 µM, first compound 0.03 µM): 3.93%
viability, T/C (second compound 0.0316 µM, first compound 0.0949 µM): 1%
viability, T/C (second compound 0.0316 µM, first compound 0.3 µM): 1.85%
viability, T/C (second compound 0.1 µM, first compound 0.000949 µM): 108%
viability, T/C (second compound 0.1 µM, first compound 0.003 µM): 48.3%
viability, T/C (second compound 0.1 µM, first compound 0.00949 µM): 0.31%
viability, T/C (second compound 0.1 µM, first compound 0.03 µM): 2.58%
viability, T/C (second compound 0.1 µM, first compound 0.0949 µM): 2.61%
viability, T/C (second compound 0.1 µM, first compound 0.3 µM): 0.65%
viability, T/C (second compound 0.316 µM, first compound 0.000949 µM): 54.1%
viability, T/C (second compound 0.316 µM, first compound 0.003 µM): 18.6%
viability, T/C (second compound 0.316 µM, first compound 0.00949 µM): 1.42%
viability, T/C (second compound 0.316 µM, first compound 0.03 µM): 3.86%
viability, T/C (second compound 0.316 µM, first compound 0.0949 µM): 1.32%
viability, T/C (second compound 0.316 µM, first compound 0.3 µM): 0.81%
viability, T/C (second compound 1 µM, first compound 0.000949 µM): 41.6%
viability, T/C (second compound 1 µM, first compound 0.003 µM): 7.07%
viability, T/C (second compound 1 µM, first compound 0.00949 µM): 2.43%
viability, T/C (second compound 1 µM, first compound 0.03 µM): 2.96%
viability, T/C (second compound 1 µM, first compound 0.0949 µM): 3.35%
viability, T/C (second compound 1 µM, first compound 0.3 µM): 1.14%
viability, T/C (second compound 3.16 µM, first compound 0.000949 µM): 30.4%
viability, T/C (second compound 3.16 µM, first compound 0.003 µM): 3.95%
viability, T/C (second compound 3.16 µM, first compound 0.00949 µM): 1.54%
viability, T/C (second compound 3.16 µM, first compound 0.03 µM): 1.66%
viability, T/C (second compound 3.16 µM, first compound 0.0949 µM): 2.98%
viability, T/C (second compound 3.16 µM, first compound 0.3 µM): 0.23%
viability, T/C (second compound 10 µM, first compound 0.000949 µM): 28.3%
viability, T/C (second compound 10 µM, first compound 0.003 µM): 2.63%
viability, T/C (second compound 10 µM, first compound 0.00949 µM): 1.46%
viability, T/C (second compound 10 µM, first compound 0.03 µM): 3.63%
viability, T/C (second compound 10 µM, first compound 0.0949 µM): 1.96%
viability, T/C (second compound 10 µM, first compound 0.3 µM): 0.7%

IC50 (second compound 0.0316 µM): > 10000 nM
IC50 (second compound 0.1 µM): > 10000 nM
IC50 (second compound 0.316 µM): < 31.6 nM
IC50 (second compound 1 µM): < 31.6 nM
IC50 (second compound 3.16 µM): < 31.6 nM
IC50 (second compound 10 µM): < 31.6 nM
Compound: O=C(c1cc(Cc2n[nH]c(=O)c3ccccc23)ccc1F)N1CCN(C(=O)C2CC2)CC1 + CNC(=O)c1ccc(Nc2nc(OC3CCCC3)c3c(-c4ccc5nc(C)oc5c4)c[nH]c3n2)c(OC)c1
viability, T/C (second compound 0.0316 µM, first compound 0.0316 µM): 94.7%
viability, T/C (second compound 0.0316 µM, first compound 0.1 µM): 107%
viability, T/C (second compound 0.0316 µM, first compound 0.316 µM): 98.4%
viability, T/C (second compound 0.0316 µM, first compound 1 µM): 104%
viability, T/C (second compound 0.0316 µM, first compound 3.16 µM): 94.6%
viability, T/C (second compound 0.0316 µM, first compound 10 µM): 75.9%
viability, T/C (second compound 0.1 µM, first compound 0.0316 µM): 101%
viability, T/C (second compound 0.1 µM, first compound 0.1 µM): 105%
viability, T/C (second compound 0.1 µM, first compound 0.316 µM): 95.8%
viability, T/C (second compound 0.1 µM, first compound 1 µM): 101%
viability, T/C (second compound 0.1 µM, first compound 3.16 µM): 92.8%
viability, T/C (second compound 0.1 µM, first compound 10 µM): 77.4%
viability, T/C (second compound 0.316 µM, first compound 0.0316 µM): 39.6%
viability, T/C (second compound 0.316 µM, first compound 0.1 µM): 52.1%
viability, T/C (second compound 0.316 µM, first compound 0.316 µM): 40.9%
viability, T/C (second compound 0.316 µM, first compound 1 µM): 51.4%
viability, T/C (second compound 0.316 µM, first compound 3.16 µM): 47.8%
viability, T/C (second compound 0.316 µM, first compound 10 µM): 40.3%
viability, T/C (second compound 1 µM, first compound 0.0316 µM): 36.5%
viability, T/C (second compound 1 µM, first compound 0.1 µM): 33.9%
viability, T/C (second compound 1 µM, first compound 0.316 µM): 31.4%
viability, T/C (second compound 1 µM, first compound 1 µM): 33.3%
viability, T/C (second compound 1 µM, first compound 3.16 µM): 29.9%
viability, T/C (second compound 1 µM, first compound 10 µM): 24.3%
viability, T/C (second compound 3.16 µM, first compound 0.0316 µM): 32.3%
viability, T/C (second compound 3.16 µM, first compound 0.1 µM): 33.2%
viability, T/C (second compound 3.16 µM, first compound 0.316 µM): 35.1%
viability, T/C (second compound 3.16 µM, first compound 1 µM): 32%
viability, T/C (second compound 3.16 µM, first compound 3.16 µM): 29.4%
viability, T/C (second compound 3.16 µM, first compound 10 µM): 22.5%
viability, T/C (second compound 10 µM, first compound 0.0316 µM): 26.3%
viability, T/C (second compound 10 µM, first compound 0.1 µM): 33.6%
viability, T/C (second compound 10 µM, first compound 0.316 µM): 30.4%
viability, T/C (second compound 10 µM, first compound 1 µM): 29.4%
viability, T/C (second compound 10 µM, first compound 3.16 µM): 28.2%
viability, T/C (second compound 10 µM, first compound 10 µM): 23.8%
